In BindingDB's records for doi:10.7270/Q21R6P59 (German University In Cairo, 2011) one finds IC50 data, which are given here for six compounds.

The target of this assay is cGMP-specific 3',5'-cyclic phosphodiesterase (Homo sapiens, UniProt O76074). In words: Phosphodiesterase Inhibition Assay. As for the experimental part:
PDE activity was measured using a modification of the IMAP fluorescence polarization phosphodiesterase assay from Molecular Devices. The assay was modified to use tetramethylrhodamine (TAMRA-) cGMP as substrate. PDE hydrolysis of the fluorescent labeled substrate allows it to bind the IMAP binding reagent, which results in increased FP.
In turn, `CCn1c(O)c2n(c1=O)[C@@H](c1ccc(OC)cc1OC)c1[nH]c3ccccc3c1C2` [PDE5 Inhibitor, 6] returned an IC50 of 720 nM.

As for `COc1ccc([C@@H]2c3[nH]c4ccccc4c3Cc3c(O)n(C(C)(C)C)c(=O)n32)c(OC)c1` [PDE5 Inhibitor, 12], the IC50 stood at 550 nM.

On to `CCn1c(O)c2n(c1=O)[C@H](c1ccc(OC)cc1OC)c1[nH]c3ccccc3c1C2` [PDE5 Inhibitor, 8], for which it took 360 nM to reach half-maximal inhibition (IC50). This IC50 is about 1.5-fold lower than that of the compound before.

The compound `COC(=O)[C@@H]1Cc2c([nH]c3ccccc23)[C@H](c2ccc(OC)cc2OC)N1` [PDE5 Inhibitor, 4] came in with an IC50 of 6400 nM.

The compound `C=CCn1c(O)c2n(c1=S)[C@H](c1ccc(OC)cc1OC)c1[nH]c3ccccc3c1C2` [PDE5 Inhibitor, 19] returned an IC50 of 560 nM.

The compound `COc1ccc([C@H]2c3[nH]c4ccccc4c3Cc3c(O)n(C(C)(C)C)c(=O)n32)c(OC)c1` [PDE5 Inhibitor, 9] gave an IC50 of 2400 nM.

Broadly, the IC50 is the point on the concentration scale where inhibition reaches its midpoint. A lower IC50 goes with higher potency.
